Data reported in publication PMC3749120, “RasGRPs Are Targets of the Anti-Cancer Agent Ingenol-3-Angelate” (PLoS ONE, 2013).

Key:
[1] = target: T1, RasGRP3 (Homo sapiens, UniProt Q8IV61); test: competition radioligand binding with [3H]phorbol […],13-dibutyrate, […]°C
T1 construct: full-length
T1 sequence (Q8IV61 1-690): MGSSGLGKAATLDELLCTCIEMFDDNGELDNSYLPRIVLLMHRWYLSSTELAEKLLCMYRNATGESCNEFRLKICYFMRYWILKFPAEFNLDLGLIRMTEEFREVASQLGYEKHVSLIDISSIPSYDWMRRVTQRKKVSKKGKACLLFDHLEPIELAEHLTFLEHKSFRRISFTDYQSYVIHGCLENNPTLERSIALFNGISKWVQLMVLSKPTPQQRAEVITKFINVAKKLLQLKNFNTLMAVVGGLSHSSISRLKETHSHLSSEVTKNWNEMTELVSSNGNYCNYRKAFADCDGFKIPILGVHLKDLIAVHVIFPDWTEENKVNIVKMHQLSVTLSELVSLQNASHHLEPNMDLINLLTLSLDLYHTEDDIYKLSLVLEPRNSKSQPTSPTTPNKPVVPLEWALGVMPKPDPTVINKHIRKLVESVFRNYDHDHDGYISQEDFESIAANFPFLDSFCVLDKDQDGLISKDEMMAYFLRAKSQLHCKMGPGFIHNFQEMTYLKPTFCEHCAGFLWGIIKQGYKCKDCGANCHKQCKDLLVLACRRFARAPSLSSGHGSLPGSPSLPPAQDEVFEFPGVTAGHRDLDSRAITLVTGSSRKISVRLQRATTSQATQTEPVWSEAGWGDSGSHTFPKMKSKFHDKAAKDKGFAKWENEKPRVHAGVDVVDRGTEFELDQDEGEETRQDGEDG

[2] = target: T1, RasGRP3; test: [3H]PDBu radioligand binding

Row | SMILES | Kd [1] [nM] | Kd [2] [nM]
1 | C/C=C(/C)C(=O)O[C@H]1C(C)=C[C@]23C(=O)[C@@H](C=C(CO)[C@@H](O)[C@]12O)[C@H]1[C@@H](C[C@H]3C)C1(C)C [I3A, Ingenol-3-angelate] | 0.045 ± 0.005 | –
2 | CCCC(=O)O[C@@H]1[C@@H](C)[C@@]2(O)[C@@H](C=C(CO)C[C@]3(O)C(=O)C(C)=C[C@@H]23)[C@@H]2C(C)(C)[C@]12OC(=O)CCC [PDBu, phorbol 12,13-dibutyrate] | – | 0.42 ± 0.03
